Source: patent publication US20250109146A1, “BRIDGED RING-SUBSTITUTED HETEROARYL-PYRAN DERIVATIVE, AND USE THEREOF” (priority 2022, published 2025)
Structures can show the parent of a compound that is named as a salt.

Tests used:
[1] = test system: p-ERK in KRAS^G12D mutant AsPC-1 cells; assay: Assay of p-ERK inhibition in AsPC-1 cells (HTRF); format: cell-based; settings: HTRF method, 1 hour incubation with compound
Procedure: • 1) ASPC-1 cells were inoculated in a transparent 96-well cell culture plate, and each well contained 80 μL of cell suspension and 8000 cells. The cell plate was inoculated in a carbon dioxide incubator at 37° C. overnight; • 2) After completion of the incubation, the cell supernatant was discarded. […] 2 μL of the compound was weighed and added to 78 μL of a cell starvation medium. After the mixture was mixed thoroughly, 20 μL of the solution of compound was weighed and added to the corresponding well of the cell plate. […] 50 μL of cell lysate was added to each well. […] The mixture was incubated at room temperature for 4 hours; • 7) After completion of the incubation, HTRF was read with multi-label analyzer: excitation: 320 nm, emission: 615 nm, 665 nm.

[2] = test system: p-ERK in KRAS^G12D mutant AGS cells; assay: Assay of p-ERK inhibition in AGS cells (HTRF); format: cell-based; settings: Homo sapiens, 3 hours incubation with compound
Procedure: • 1) AGS cells were inoculated in a transparent 96-well cell culture plate, and each well contained 80 μL of cell suspension and 10000 cells. […] 80 μL of medium containing 0.02% serum was added to each well. The cell plate was incubated in a carbon dioxide incubator at 37° C. overnight; • 3) 2 μL of the compound was weighed and added to 78 μL of the cell medium. After the mixture was mixed thoroughly, 20 μL of the solution of compound was weighed and added to the corresponding well of the cell plate. […] 50 μL of 1× cell lysate was added to each well. […] The mixture was incubated at room temperature for at least 4 hours; • 7) After completion of the incubation, HTRF was read with multi-label analyzer: excitation: 320 nm, emission: 615 nm, 665 nm; • 8). IC50 of the compound to be assayed was calculated. […]
• 1) AGS cells were inoculated in a transparent 96-well cell culture plate, and each well contained 80 μL of cell suspension and 10000 cells. […] The mixture was incubated at room temperature for at least 4 hours; • 7) After completion of the incubation, HTRF was read with multi-label analyzer: excitation: 320 nm, emission: 615 nm, 665 nm; • 8). IC50 of the compound to be assayed was calculated.

Row | Structure (SMILES) | IC50 [1] | IC50 [2]
1 | CC#Cc1cc(N)c(F)c([C@H]2Cc3nc(OC[C@]45CCCN4C/C(=C\F)C5)nc(N4CC5CCC(C4)N5)c3CO2)c1C(F)(F)F [Compound 11 formate] | 0.9 nM | –
2 | C#Cc1c(F)ccc2cc(N)cc(C3Cc4nc(OC[C@@]56CCCN5C[C@H](F)C6)nc(N5CC6CCC(C5)N6)c4CO3)c12 (stereo partly drawn) [Compound 3 hydrochloride] | – | 64.6 nM
3 | CC#Cc1cc(N)c(F)c([C@@H]2Cc3nc(OC[C@]45C=CCN4CCC5)nc(N4CC5CCC(C4)N5)c3CO2)c1C(F)(F)F [Compound 10 hydrochloride] | 1.1 nM | –
